Results: US11572341B2, “Biguanide compound and use thereof” (ImmunoMet Therapeutics Inc., priority 2014, dated 2023)

These compounds were tested on HCT116 cells (assay: Inhibitory effect against cancer cell proliferation (MTT)). Conditions: HCT116, MTT, 48 hours; read-out: IC50 (uM) @ HCT116.
Format: cell-based, human
Procedure: The formazane crystals thus formed were dissolved using dimethyl sulfoxide (DMSO) and absorbance of the solution was measured at 560 nm. After culturing for 48 hours, […] synthesized in Examples was indicated as cell viability (%) according to each treated concentration.

Row | Compound | IC50 [µM]
1 | N1-(3,5-dimethyl)piperidin-N5-(4-trifluoromethyl)phenyl Biguanide Hydrochloride [Example 63] | 2.8

Same assay, conditions: Homo sapiens, HCT-116; HCT116, MTT, 48 hours; read-out: IC50 (uM) @ HCT116

Row | Compound | IC50 [µM]
2 | Cl.N=C(N)NC(=N)NCc1ccc(C(F)(F)F)cc1 [Example 141, N1-(4-trifluoromethyl)benzyl Biguanide Hydrochloride] | > 100
3 | CC(C)NC(=N)NC(=N)Nc1ccc(Cl)cc1.Cl [Example 17, N1-isopropyl-N5-(4-chloro)phenyl Biguanide Hydrochloride] | 35.1
4 | Cl.N=C(N)NC(=N)NCc1ccc(OC(F)(F)F)cc1 [Example 142, N1-(4-trifluoromethoxy)benzyl Biguanide Hydrochloride] | 73.6
5 | C/N=C(\NCCc1ccc2c(c1)OCO2)NC(=N)N.Cl [Example 102, N1-2-(benzo[d][1,3]dioxol-5-yl)ethyl-N2-methyl Biguanide Hydrochloride] | > 100
6 | Cl.N=C(NC(=N)N1CCCC1)Nc1cccc(Cl)c1Cl [Example 78, N1-pyrrolidin-N5-(2,3-dichloro)phenyl Biguanide Hydrochloride] | 58.3
7 | CN1CCN(C(=N)NC(=N)NCc2cccc(C(F)(F)F)c2)CC1.Cl [Example 20, N1-(4-methyl)piperazin-N5-(3-trifluoromethyl)benzyl Biguanide Hydrochloride] | > 100
8 | Cl.N=C(NC(=N)Nc1cccc(C(F)(F)F)c1)Nc1cccnc1 [Example 41, N1-3-pyridin-N5-(3-trifluoromethyl)phenyl Biguanide Hydrochloride] | > 100
9 | Cl.N=C(N)NC(=N)NCCc1ccc(Cl)cc1 [Example 137, N1-(4-chloro)phenethyl Biguanide Hydrochloride] | > 100
10 | CC(=O)c1ccc(NC(=N)NC(=N)N)cc1.Cl [Example 117, N1-(4-acetyl)phenyl Biguanide Hydrochloride] | > 100
11 | Cl.N=C(NCc1cccc(C(F)(F)F)c1)NC(=N)Nc1cccnc1 [Example 43, N1-3-pyridin-N5-(3-trifluoromethyl)benzyl Biguanide Hydrochloride] | 100
12 | CN1CCN(C(=N)NC(=N)Nc2cc(F)c(F)c(F)c2)CC1.Cl [Example 40, N1-(4-methyl)piperazin-N5-(3,4,5-trifluoro)phenyl Biguanide Hydrochloride] | > 100
13 | Cl.N=C(NC(=N)N1CCCC1)Nc1ccc(F)c(Cl)c1 [Example 77, N1-pyrrolidin-N5-(3-chloro-4-fluoro)phenyl Biguanide Hydrochloride] | 50.6
14 | Cl.N=C(NC(=N)N1CCCC1)Nc1ccc(SC(F)(F)F)cc1 [Example 79, N1-pyrrolidin-N5-(4-trifluoromethylthio)phenyl Biguanide Hydrochloride] | 7.9
15 | COC1CCN(C(=N)NC(=N)N2CCCC(C)C2)CC1.Cl (stereo not shown) [Example 45, N1-(3-methyl)piperidin-N5-(4-methoxy)piperidine Biguanide Hydrochloride] | > 100

These compounds were tested on AMPKa [pT172] (assay: AMPKa activation [pT172] in MCF7 cell). Conditions: 5 uM.
Format: cell-based

Row | Compound | AMPKa activation [pT172] (Unit/ml) @ MCF7 cell [Unit/ml]
16 | Cl.N=C(N)NC(=N)NCc1ccc(C(F)(F)F)cc1 [Example 141, N1-(4-trifluoromethyl)benzyl Biguanide Hydrochloride] | 5.6
17 | CC(C)NC(=N)NC(=N)Nc1ccc(Cl)cc1.Cl [Example 17, N1-isopropyl-N5-(4-chloro)phenyl Biguanide Hydrochloride] | 10.2
18 | Cl.N=C(N)NC(=N)NCc1ccc(OC(F)(F)F)cc1 [Example 142, N1-(4-trifluoromethoxy)benzyl Biguanide Hydrochloride] | 4.7
19 | C/N=C(\NCCc1ccc2c(c1)OCO2)NC(=N)N.Cl [Example 102, N1-2-(benzo[d][1,3]dioxol-5-yl)ethyl-N2-methyl Biguanide Hydrochloride] | 4.8
20 | Cl.N=C(NC(=N)N1CCCC1)Nc1cccc(Cl)c1Cl [Example 78, N1-pyrrolidin-N5-(2,3-dichloro)phenyl Biguanide Hydrochloride] | 3.4
21 | CN1CCN(C(=N)NC(=N)NCc2cccc(C(F)(F)F)c2)CC1.Cl [Example 20, N1-(4-methyl)piperazin-N5-(3-trifluoromethyl)benzyl Biguanide Hydrochloride] | 2.9
22 | Cl.N=C(NC(=N)Nc1cccc(C(F)(F)F)c1)Nc1cccnc1 [Example 41, N1-3-pyridin-N5-(3-trifluoromethyl)phenyl Biguanide Hydrochloride] | 8.3
23 | Cl.N=C(N)NC(=N)NCCc1ccc(Cl)cc1 [Example 137, N1-(4-chloro)phenethyl Biguanide Hydrochloride] | 4.1
24 | Cl.N=C(NCc1cccc(C(F)(F)F)c1)NC(=N)Nc1cccnc1 [Example 43, N1-3-pyridin-N5-(3-trifluoromethyl)benzyl Biguanide Hydrochloride] | 3.0
25 | CN1CCN(C(=N)NC(=N)Nc2cc(F)c(F)c(F)c2)CC1.Cl [Example 40, N1-(4-methyl)piperazin-N5-(3,4,5-trifluoro)phenyl Biguanide Hydrochloride] | 7.0
26 | N1-(3,5-dimethyl)piperidin-N5-(4-trifluoromethyl)phenyl Biguanide Hydrochloride [Example 63] | 15.1
27 | Cl.N=C(NC(=N)N1CCCC1)Nc1ccc(F)c(Cl)c1 [Example 77, N1-pyrrolidin-N5-(3-chloro-4-fluoro)phenyl Biguanide Hydrochloride] | 4.5
28 | Cl.N=C(NC(=N)N1CCCC1)Nc1ccc(SC(F)(F)F)cc1 [Example 79, N1-pyrrolidin-N5-(4-trifluoromethylthio)phenyl Biguanide Hydrochloride] | 7.8
29 | COC1CCN(C(=N)NC(=N)N2CCCC(C)C2)CC1.Cl (stereo not shown) [Example 45, N1-(3-methyl)piperidin-N5-(4-methoxy)piperidine Biguanide Hydrochloride] | 3.0

Same assay, conditions: 10 uM

Row | Compound | AMPKa activation [pT172] (Unit/ml) @ MCF7 cell [Unit/ml]
30 | Cl.N=C(N)NC(=N)NCc1ccc(C(F)(F)F)cc1 [Example 141, N1-(4-trifluoromethyl)benzyl Biguanide Hydrochloride] | 6.1
31 | CC(C)NC(=N)NC(=N)Nc1ccc(Cl)cc1.Cl [Example 17, N1-isopropyl-N5-(4-chloro)phenyl Biguanide Hydrochloride] | 10.8
32 | Cl.N=C(N)NC(=N)NCc1ccc(OC(F)(F)F)cc1 [Example 142, N1-(4-trifluoromethoxy)benzyl Biguanide Hydrochloride] | 6.0
33 | C/N=C(\NCCc1ccc2c(c1)OCO2)NC(=N)N.Cl [Example 102, N1-2-(benzo[d][1,3]dioxol-5-yl)ethyl-N2-methyl Biguanide Hydrochloride] | 2.8
34 | Cl.N=C(NC(=N)N1CCCC1)Nc1cccc(Cl)c1Cl [Example 78, N1-pyrrolidin-N5-(2,3-dichloro)phenyl Biguanide Hydrochloride] | 3.4
35 | CN1CCN(C(=N)NC(=N)NCc2cccc(C(F)(F)F)c2)CC1.Cl [Example 20, N1-(4-methyl)piperazin-N5-(3-trifluoromethyl)benzyl Biguanide Hydrochloride] | 4.5
36 | Cl.N=C(NC(=N)Nc1cccc(C(F)(F)F)c1)Nc1cccnc1 [Example 41, N1-3-pyridin-N5-(3-trifluoromethyl)phenyl Biguanide Hydrochloride] | 10.2
37 | Cl.N=C(N)NC(=N)NCCc1ccc(Cl)cc1 [Example 137, N1-(4-chloro)phenethyl Biguanide Hydrochloride] | 7.3
38 | Cl.N=C(NCc1cccc(C(F)(F)F)c1)NC(=N)Nc1cccnc1 [Example 43, N1-3-pyridin-N5-(3-trifluoromethyl)benzyl Biguanide Hydrochloride] | 4.3
39 | CN1CCN(C(=N)NC(=N)Nc2cc(F)c(F)c(F)c2)CC1.Cl [Example 40, N1-(4-methyl)piperazin-N5-(3,4,5-trifluoro)phenyl Biguanide Hydrochloride] | 5.1
40 | N1-(3,5-dimethyl)piperidin-N5-(4-trifluoromethyl)phenyl Biguanide Hydrochloride [Example 63] | 22.9
41 | Cl.N=C(NC(=N)N1CCCC1)Nc1ccc(F)c(Cl)c1 [Example 77, N1-pyrrolidin-N5-(3-chloro-4-fluoro)phenyl Biguanide Hydrochloride] | 5.7
42 | Cl.N=C(NC(=N)N1CCCC1)Nc1ccc(SC(F)(F)F)cc1 [Example 79, N1-pyrrolidin-N5-(4-trifluoromethylthio)phenyl Biguanide Hydrochloride] | 11.7
43 | COC1CCN(C(=N)NC(=N)N2CCCC(C)C2)CC1.Cl (stereo not shown) [Example 45, N1-(3-methyl)piperidin-N5-(4-methoxy)piperidine Biguanide Hydrochloride] | 4.0

Same assay, conditions: 50 uM

Row | Compound | AMPKa activation [pT172] (Unit/ml) @ MCF7 cell
44 | Cl.N=C(N)NC(=N)NCc1ccc(C(F)(F)F)cc1 [Example 141, N1-(4-trifluoromethyl)benzyl Biguanide Hydrochloride] | 10.3 Unit/ml
45 | CC(C)NC(=N)NC(=N)Nc1ccc(Cl)cc1.Cl [Example 17, N1-isopropyl-N5-(4-chloro)phenyl Biguanide Hydrochloride] | 55.7 Unit/ml
46 | Cl.N=C(N)NC(=N)NCc1ccc(OC(F)(F)F)cc1 [Example 142, N1-(4-trifluoromethoxy)benzyl Biguanide Hydrochloride] | 7.2 Unit/ml
47 | C/N=C(\NCCc1ccc2c(c1)OCO2)NC(=N)N.Cl [Example 102, N1-2-(benzo[d][1,3]dioxol-5-yl)ethyl-N2-methyl Biguanide Hydrochloride] | 6.8 Unit/ml
48 | Cl.N=C(NC(=N)N1CCCC1)Nc1cccc(Cl)c1Cl [Example 78, N1-pyrrolidin-N5-(2,3-dichloro)phenyl Biguanide Hydrochloride] | 3.8 Unit/ml
49 | CN1CCN(C(=N)NC(=N)NCc2cccc(C(F)(F)F)c2)CC1.Cl [Example 20, N1-(4-methyl)piperazin-N5-(3-trifluoromethyl)benzyl Biguanide Hydrochloride] | 5.6 Unit/ml
50 | Cl.N=C(NC(=N)Nc1cccc(C(F)(F)F)c1)Nc1cccnc1 [Example 41, N1-3-pyridin-N5-(3-trifluoromethyl)phenyl Biguanide Hydrochloride] | 14.4 Unit/ml
51 | Cl.N=C(N)NC(=N)NCCc1ccc(Cl)cc1 [Example 137, N1-(4-chloro)phenethyl Biguanide Hydrochloride] | 11.9 Unit/ml
52 | CC(=O)c1ccc(NC(=N)NC(=N)N)cc1.Cl [Example 117, N1-(4-acetyl)phenyl Biguanide Hydrochloride] | 6.2 Unit/ml
53 | Cl.N=C(NCc1cccc(C(F)(F)F)c1)NC(=N)Nc1cccnc1 [Example 43, N1-3-pyridin-N5-(3-trifluoromethyl)benzyl Biguanide Hydrochloride] | 7.6 Unit/ml
54 | CN1CCN(C(=N)NC(=N)Nc2cc(F)c(F)c(F)c2)CC1.Cl [Example 40, N1-(4-methyl)piperazin-N5-(3,4,5-trifluoro)phenyl Biguanide Hydrochloride] | 7.2 Unit/ml
55 | N1-(3,5-dimethyl)piperidin-N5-(4-trifluoromethyl)phenyl Biguanide Hydrochloride [Example 63] | cell death
56 | Cl.N=C(NC(=N)N1CCCC1)Nc1ccc(F)c(Cl)c1 [Example 77, N1-pyrrolidin-N5-(3-chloro-4-fluoro)phenyl Biguanide Hydrochloride] | 13.9 Unit/ml
57 | Cl.N=C(NC(=N)N1CCCC1)Nc1ccc(SC(F)(F)F)cc1 [Example 79, N1-pyrrolidin-N5-(4-trifluoromethylthio)phenyl Biguanide Hydrochloride] | cell death
58 | COC1CCN(C(=N)NC(=N)N2CCCC(C)C2)CC1.Cl (stereo not shown) [Example 45, N1-(3-methyl)piperidin-N5-(4-methoxy)piperidine Biguanide Hydrochloride] | 3.5 Unit/ml
